Tests used:
[1] = test system: rat hippocampal neurons; assay: Live/Dead (Calcein/Ethidium) viability of rat hippocampal neuronal cultures
[2] = test system: human fetal neurons; settings: for neuroprotection against synergistic toxicity of HIV proteins plus cocaine (percent neuronal death): pretreatment before Tat1-72 (40 nM) + gp120 (32.5 pM) + cocaine (1.6 μM); for magnitude of cell death vs Locke's buffer control: HIV proteins plus cocaine challenge with steroid pretreatment
Experimental: Culture of Human Brain Cells: Neuronal cultures were prepared as described previously (Magnuson D S, et al. Ann Neurol 1995, 37: 373-380; Nath A, et al. J Virol 1996, 70: 1475-1480; New D, et al. J Neurovirol 1997, 3: 168-173). Human fetal brain specimens of gestational age 12-14 weeks were obtained with the consent of women opting for elective termination of pregnancy. Protocols were carried out with strict adherence to the guidelines of the National Institutes of Health (NIH) and with approval from the University of Kentucky Institutional Review Board. Briefly, after mechanical dissociation, the cells were suspended in Opti-MEM with 5% heat-inactivated fetal bovine serum, 0.2% N2 supplement and 1% antibiotic solution (penicillin G sodium 104 units/ml, streptomycin sulfate 10 μg/ml and amphotericin-B 25 μg/ml) (GIBCO). The cells were maintained in culture flasks at 37° C. in a humidified atmosphere of 5% CO2 and 95% air for at least a month. At least 3 days before the experiment was performed the cells were plated in flat bottom 96 well plates coated with poly-d-lysine. Sample cultures were stained for the neuron-specific enolase, microtubule-associated protein-2, synaptophysin, and glial fibrillary astrocytic protein (GFAP). […] Sample cultures were further characterized for the presence of ER-α and ER-β and dopaminergic neurons.
Neurotoxicity Assay: At the time of the experimental treatment, the culture media was replaced with Locke's buffer containing (in mM) 154 NaCl, 5.6 KCl, 2.3 CaCl2, 1 MgCl2, 3.6 NaHCO3, 5 glucose, 5 N-2-hydroxyethylpiperazine-N′2-ethanesulfonic acid (HEPES) and 1% antibiotic solution (penicillin G sodium 104 units/ml, streptomycin sulfate 10 μg/ml and amphotericin-B 25 μg/ml) (pH 7.2). […] To replicate the stereoisomer specific neuroprotective properties of estrogen, the cultures were treated with either […] (10 nM), or 17α-E2 (10 nM) immediately preceding addition of the HIV proteins plus cocaine. To investigate the neuroprotective properties of other gonadal steroids, the cells were treated with various concentrations of PROG or T, immediately followed by exposure to the HIV proteins plus cocaine. […] Various concentrations of cholesterol were used as treatment prior to incubation with the HIV proteins plus cocaine to further characterize the nature of gonadal steroid neuroprotection. ICI-182,780, DMSO (10 nM), β-cyclodextrin (100 nM) and ethanol (10 nM) were also tested for neurotoxic/protective effects. ICI-182,780 and 17α-E2 were solvated in DMSO. […], T, PROG and cholesterol were β-cyclodextrin encapsulated to provide water solubility. Ethanol was used to solvate DHT. Tat1-72 was produced as indicated above, whereas gp120 was a gift from Chiron Corporation. The ICI-182,780 compound was obtained from Tocris Cookson, Inc. (Ellisville, Mo.). All other chemical agents were supplied by Sigma Chemicals (St. Louis, Mo.). At the end of the incubation period neuronal death was assessed by trypan blue (Sigma) exclusion assay as described previously (Vongher J and Frye C. Pharmacol Biochem Behav 1999, 64: 777-785; Magnuson D S, et al. Ann Neurol 1995, 37: 373-380; Nath A, et al. J Virol 1996, 70: 1475-1480).

[3] = test system: SK-N-SH cells; assay: DCFH fluorescence (oxidative stress) in SK-N-SH cells; type: cell-based, human; settings: for effect of hormone on tat+gp120-induced fluorescence: gp120 (30 pM)+tat (60 nM), hormone 0.1 to 100 nM
Experimental: Cell Culture Assays: SK-N-SH cells (ATCC) were grown in RPMI 1640 with 1% streptomycin/amphotericin and 10% FBS and incubated at 37° C. in the presence of 5% CO2. Cells were subcultured into 96-well plates at a density of 10^4 cell/well and used within 24 hours. Plates were first washed with warmed Krebs buffer (KHB). Stock DCFH in DMSO was diluted in KHB to a final concentration of 100 μM and incubated in each well for 30 minutes. DCFH dye was removed and cells were washed with warmed KHB and the appropriate drug or drug combination was added. Plates were returned to the incubator and drugs were allowed to incubate for 30 minutes. Incubation with the free radical generator SIN-1 (3-morpholinosydnonimine-peroxynitrite and superoxide) was carried out for an additional 30 minutes. The second series of experiments utilized tat (10-250 nM) or gp120 (25-100 pM) in place of the free radical generator.
The concentration of either E2 or progesterone was 0.1 to 100 nM. Plates were returned to the incubator with the hormones and were allowed to incubate for 15 minutes. SIN-1 (50 μM) was chosen as the free radical generator due to the production of peroxynitrite. Previous studies have shown that this concentration of SIN-1 yielded maximum increases in DCFH fluorescence (Wang and Joseph, 1999). In groups that examined the protective effects of E2 and/or progesterone, the hormone was added 15 minutes prior to addition of SIN-1, tat or gp120. Studies that have examined the simultaneous addition of the oxidative stress agent and hormone have yielded attenuated results. Following incubation with SIN-1, tat or gp120 (depending on the assay), fluorescence was determined by using a Bio-Tek plate reader with the settings of 485 n (excitation) and 585 nm (emission) with an integration time of 40 ms. Assays were run four separate times in triplicate. Data are expressed as mean of the separate assays±SEM.

[4] = test system: Sprague-Dawley rats; assay: Neonatal hippocampal gp120 injections with or without apomorphine: PPI in adult rats; type: in vivo, rat
[5] = biological target: T1, dopamine transporter (Rattus norvegicus, UniProt P23977); assay: [3H] dopamine uptake in rat striatal synaptosomes; type: biochemical
T1 construct: followed by differential centrifugation resulting in a crude P2 preparation; from tissue; host or cells: rat striatum (synaptosomes, crude P2 preparation)
Experimental: [^3H] Dopamine uptake in synaptosomes assays: Striatal tissue from 4-5 month old male Sprague-Dawley rats (N=4) was homogenized in 5 mL ice-cold 0.32 M sucrose using a glass/Teflon homogenizer followed by differential centrifugation resulting in a crude P2 preparation. Crude P2 preparations are resuspended to a final volume of 15 mL (0.13-0.15 μg protein/tube) in assay buffer (consisting of 25 mM HEPES, 120 mM NaCl, 5 mM KCl, 2.5 mM CaCl2, 1.2 mM MgSO4, […] ascorbic acid, 1 μM pargyline and 2 mg/mL D-(+) glucose). P2 preparation was then added to assay tubes in 400 μL, followed by 50 μL of buffer or drug. Uptake was initiated by the addition of [7, 8 ^3H] dopamine, 0.02 M acetic acid:ethanol (1:1) solution (Amersham Biosciences, UK). Synaptosomes were preincubated first with 100 nM E2 30 minutes to the initiation of uptake, followed by addition of the appropriate concentrations of gp120 (30 pM) and tat (60 nM), or both proteins, 15 minutes prior to the start of the uptake assay. […] Filters were washed 15 seconds with ice-cold 0.9% NaCl and total [^3H] dopamine uptake was determined by scintillation spectrophotometry. Nonspecific uptake was determined in a parallel set of tubes run in the presence of 1 μM Mazindol, a dopamine uptake inhibitor. Data are expressed as the mean±SEM (N=4).

[6] = HIV proteins plus cocaine challenge

T1 sequence (P23977 whole entry): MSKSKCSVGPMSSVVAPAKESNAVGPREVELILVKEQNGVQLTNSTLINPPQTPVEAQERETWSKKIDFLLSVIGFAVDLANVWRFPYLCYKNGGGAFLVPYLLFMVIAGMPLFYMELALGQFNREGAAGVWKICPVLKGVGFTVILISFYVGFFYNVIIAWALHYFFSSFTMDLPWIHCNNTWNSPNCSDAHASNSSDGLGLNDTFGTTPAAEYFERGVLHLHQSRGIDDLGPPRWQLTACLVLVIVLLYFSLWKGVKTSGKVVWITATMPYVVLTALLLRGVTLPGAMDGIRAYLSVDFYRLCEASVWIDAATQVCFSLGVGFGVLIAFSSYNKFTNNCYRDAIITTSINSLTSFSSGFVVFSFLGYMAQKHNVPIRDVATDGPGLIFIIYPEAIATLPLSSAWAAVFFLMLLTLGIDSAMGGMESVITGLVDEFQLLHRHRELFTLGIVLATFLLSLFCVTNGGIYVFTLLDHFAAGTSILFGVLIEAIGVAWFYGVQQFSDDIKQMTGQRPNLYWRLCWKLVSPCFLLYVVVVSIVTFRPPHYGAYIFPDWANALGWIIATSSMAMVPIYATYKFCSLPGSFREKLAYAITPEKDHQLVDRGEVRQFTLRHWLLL

CN1CCc2cc(Cl)c(O)cc2[C@@H](c2ccccc2)C1 [SCH 23390]
neuronal cell viability, SCH 23390 alone ([1]; 0.1 to 10 μM): did not cause any changes in neuronal cell viability

C[C@]12CC[C@@H]3c4ccc(O)cc4C[C@@H](CCCCCCCCC[S+]([O-])CCCC(F)(F)C(F)(F)F)[C@H]3[C@@H]1CC[C@@H]2O (stereo partly shown) [ICI-182,780]
blockade of T (10 nM) neuroprotection ([2]; ICI-182,780 100 nM pretreatment): fully blocked
neuroprotection against synergistic toxicity of HIV proteins plus cocaine (percent neuronal death) ([2]; 15 hours): nor was it neuroprotective against the toxic challenge
toxicity alone vs Locke's buffer ([2]; substance alone, 15 hours): not more toxic to the cultures than was Locke's buffer
effect of ICI 182,780 on E2 attenuation of tat+gp120-induced fluorescence ([3]; 100 nM E2+1 μM ICI 182,780): Neither progesterone nor E2+ICI 182,780 values differed significantly from control values

C[C@]12CCC(=O)C[C@@H]1CC[C@@H]1[C@@H]2CC[C@]2(C)[C@@H](O)CC[C@@H]12 [DHT, 5α-Androstan-17β-ol-3-one; 17β-Hydroxy-5α-androstan-3-one]
concentration dependence of effect on percent neuronal death [2, 6]: no concentration-dependent effect
magnitude of cell death vs Locke's buffer control [2]: significantly greater than that observed with Locke's Buffer control
neuroprotection against synergistic toxicity of HIV proteins plus cocaine (percent neuronal death) ([2]; 15 hours): significant neuroprotection

C[C@]12CC[C@@H]3c4ccc(O)cc4CC[C@H]3[C@@H]1CC[C@H]2O [17α-E2]
neuroprotection against synergistic toxicity of HIV proteins plus cocaine (percent neuronal death) ([2]; 15 hours): not significantly different from the synergistic toxicity control

CN1CCc2cccc3c2[C@H]1Cc1ccc(O)c(O)c1-3 [APO, apomorphine]
peak ASR magnitude in PPI trials: gp120×drug interaction ([4]; 8-120 msec ISIs): significantly altered the gp120 dose response
peak ASR latency in PPI trials ([4]; rat, in vivo): did not have an impact on latency response
peak ASR magnitude, adaptation trials: apomorphine ([4]; rat, in vivo): attenuated the baseline of peak magnitude of the ASR

N=c1c[n+](N2CCOCC2)[n-]o1 [SIN-1, 3-morpholinosydnonimine]
lowest concentration with significant increase in fluorescence ([3]; SIN-1 0-500 μM): 5 µM

C[C@]12CC[C@@H]3c4ccc(O)cc4CC[C@H]3[C@@H]1CC[C@@H]2O [E2, 17β-estradiol]
Vmax with gp120 + tat + E2 ([5]; 100 nM E2 with gp120 and tat, control 231): 220 nmol/mg protein/minute
effect of E2 on gp120- or tat-induced reduction of [3H] dopamine uptake ([5]; co-incubation with 100 nM E2): reversed this reduction
neuroprotection against synergistic toxicity of HIV proteins plus cocaine (percent neuronal death) ([2]; 15 hours): precluded by pretreatment with 10 nM dose of 17β-E2
SIN-1-induced fluorescence at highest concentration of E2 ([3]; 100 nM E2, 50 μM SIN-1): reduced fluorescence levels to control values
lowest E2 concentration with significant reduction of SIN-1-induced fluorescence ([3]; 50 μM SIN-1, E2 0.1 to 100 nM): 1 nM
effect of hormone on tat+gp120-induced fluorescence [3]: concentrations of 1, 10 and 100 nM E2 were each significantly (p<0.001) different from control values

CC(=O)[C@H]1CC[C@H]2[C@@H]3CCC4=CC(=O)CC[C@]4(C)[C@H]3CC[C@]12C [PROG, progesterone]
concentration dependence of effect on percent neuronal death [2, 6]: no concentration-dependent effect
magnitude of cell death vs Locke's buffer control [2]: significantly greater than that observed with Locke's Buffer control
neuroprotection against synergistic toxicity of HIV proteins plus cocaine (percent neuronal death) ([2]; 15 hours): significant neuroprotection
effect of hormone on tat+gp120-induced fluorescence [3]: had no effect on tat+gp120-induced fluorescence

Fc1ccc(C(OCCN2CCN(CCCc3ccccc3)CC2)c2ccc(F)cc2)cc1 [GBR-12909]
neurotoxicity of GBR 12909 alone ([1]; doses from 0.05 to 6 μM): not neurotoxic

CC(C)CCC[C@@H](C)[C@H]1CC[C@H]2[C@@H]3CC=C4C[C@@H](O)CC[C@]4(C)[C@H]3CC[C@]12C [Cholesterol]
concentration dependence of effect on percent neuronal death [2, 6]: concentration-dependent effect of cholesterol with a significant linear decrease in percent neuronal death
concentration giving maximal / full neuroprotection [2, 6]: 100 nM
magnitude of cell death vs Locke's buffer control [2]: not significantly different from that observed by Locke's buffer incubation
neuroprotection against synergistic toxicity of HIV proteins plus cocaine (percent neuronal death) ([2]; 15 hours): Significant neuroprotection

— patent US20080306019A1, “Dopamine Receptor Agonists in the Treatment and Prevention of Hiv-Induced Dementia” (priority 2005, published 2008)
